Laboratory results taken from the supplement of paper PMC11208160.

Assay: recombinant barcode read abundance after kanamycin selection (control-corrected) (log10(CPM+1)); higher = more efficient recombination; sequences stand for … in AGTGCAGAGAAAATCGGCCAGTTTTCTCTGCCTGCAGTCCGCATGCCGT…ATTTATGCAGCGGACTGCCTTTCTCCCAAAGTGATAAACCGGACAGTATCATGGACCGGTTTTCCCGGTAATCCGTATTTGCAAGGTTGGTTTCACT; site = the 11-nt target
Experimental: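 Same pooled E. coli target screen (IS621 bridge recombinase, kanamycin selection, control-corrected CPM, mean of 2 biological replicates). Here the two core-binding nucleotides of the LTG and RTG of the bridge RNA target-binding loop are mutated. Target and donor CT cores are held constant, and the other 9 guide positions match the target. The target is read from the library oligo sequence. Molecule = full bridge RNA written as DNA: nt 1-80 from the library oligo, rest WT scaffold.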

| Sequence | recombinant barcode read abundance (log10) |
| --- | --- |
| ACGGGACTTTGGGTTCTAACCTGTTGCAGAA [ACGGGACCTCT_LTGcore_TT_RTGcore_TT] (site ACGGGACCTCT) (LTG core: TT, RTG core: TT) | 0.0398 |
| ACGGGACTTTGGGTTCTAACCTGTTGCAGAG [ACGGGACCTCT_LTGcore_TT_RTGcore_CT] (site ACGGGACCTCT) (LTG core: TT, RTG core: CT) | 0.0241 |
| AGGAGGTAATGGGTTCTAACCTGTTGCCTAG [AGGAGGTCTAG_LTGcore_AA_RTGcore_CT] (site AGGAGGTCTAG) (LTG core: AA, RTG core: CT) | 0.278 |
| AGGAGGTAGTGGGTTCTAACCTGTTGCCTAG [AGGAGGTCTAG_LTGcore_AG_RTGcore_CT] (site AGGAGGTCTAG) (LTG core: AG, RTG core: CT) | 0.122 |
| AGGAGGTCTTGGGTTCTAACCTGTTGCCTGC [AGGAGGTCTAG_LTGcore_CT_RTGcore_GC] (site AGGAGGTCTAG) (LTG core: CT, RTG core: GC) | 0.814 |
| AGGAGGTCTTGGGTTCTAACCTGTTGCCTGG [AGGAGGTCTAG_LTGcore_CT_RTGcore_CC] (site AGGAGGTCTAG) (LTG core: CT, RTG core: CC) | 0.551 |
| AGGAGGTGATGGGTTCTAACCTGTTGCCTAG [AGGAGGTCTAG_LTGcore_GA_RTGcore_CT] (site AGGAGGTCTAG) (LTG core: GA, RTG core: CT) | 0.417 |
| AGGAGGTTATGGGTTCTAACCTGTTGCCTAG [AGGAGGTCTAG_LTGcore_TA_RTGcore_CT] (site AGGAGGTCTAG) (LTG core: TA, RTG core: CT) | 0.0987 |
| AGGAGGTTTTGGGTTCTAACCTGTTGCCTAG [AGGAGGTCTAG_LTGcore_TT_RTGcore_CT] (site AGGAGGTCTAG) (LTG core: TT, RTG core: CT) | 0.0313 |
| AGGCCTCCATGGGTTCTAACCTGTTGCCTAG [AGGCCTCCTAG_LTGcore_CA_RTGcore_CT] (site AGGCCTCCTAG) (LTG core: CA, RTG core: CT) | 0.44 |
| AGGCCTCCTTGGGTTCTAACCTGTTGCCTAG [AGGCCTCCTAG_LTGcore_CT_RTGcore_CT] (site AGGCCTCCTAG) (LTG core: CT, RTG core: CT) | 1.32 |
| AGGCCTCCTTGGGTTCTAACCTGTTGCCTCG [AGGCCTCCTAG_LTGcore_CT_RTGcore_CG] (site AGGCCTCCTAG) (LTG core: CT, RTG core: CG) | 0.401 |
| AGGCCTCCTTGGGTTCTAACCTGTTGCCTTT [AGGCCTCCTAG_LTGcore_CT_RTGcore_AA] (site AGGCCTCCTAG) (LTG core: CT, RTG core: AA) | 0.116 |
| AGGCCTCGATGGGTTCTAACCTGTTGCCTAG [AGGCCTCCTAG_LTGcore_GA_RTGcore_CT] (site AGGCCTCCTAG) (LTG core: GA, RTG core: CT) | 0.24 |
| AGGCCTCGTTGGGTTCTAACCTGTTGCCTAG [AGGCCTCCTAG_LTGcore_GT_RTGcore_CT] (site AGGCCTCCTAG) (LTG core: GT, RTG core: CT) | 0.148 |
| AGGCCTCTGTGGGTTCTAACCTGTTGCCTAG [AGGCCTCCTAG_LTGcore_TG_RTGcore_CT] (site AGGCCTCCTAG) (LTG core: TG, RTG core: CT) | 0.11 |
| AGGCGGGAGTGGGTTCTAACCTGTTGCGGCT [AGGCGGGCTCC_LTGcore_AG_RTGcore_AG] (site AGGCGGGCTCC) (LTG core: AG, RTG core: AG) | 0.0482 |

| Sequence | recombinant barcode read abundance (log10) |
| --- | --- |
| AGGCGGGATTGGGTTCTAACCTGTTGCGGAG [AGGCGGGCTCC_LTGcore_AT_RTGcore_CT] (site AGGCGGGCTCC) (LTG core: AT, RTG core: CT) | 0.447 |
| AGGCGGGATTGGGTTCTAACCTGTTGCGGAT [AGGCGGGCTCC_LTGcore_AT_RTGcore_AT] (site AGGCGGGCTCC) (LTG core: AT, RTG core: AT) | 0.178 |
| AGGCGGGCTTGGGTTCTAACCTGTTGCGGCA [AGGCGGGCTCC_LTGcore_CT_RTGcore_TG] (site AGGCGGGCTCC) (LTG core: CT, RTG core: TG) | 0.0958 |
| AGGCGGGCTTGGGTTCTAACCTGTTGCGGCT [AGGCGGGCTCC_LTGcore_CT_RTGcore_AG] (site AGGCGGGCTCC) (LTG core: CT, RTG core: AG) | 0.172 |
| AGGCGGGCTTGGGTTCTAACCTGTTGCGGTA [AGGCGGGCTCC_LTGcore_CT_RTGcore_TA] (site AGGCGGGCTCC) (LTG core: CT, RTG core: TA) | 0.138 |
| AGGCGGGCTTGGGTTCTAACCTGTTGCGGTG [AGGCGGGCTCC_LTGcore_CT_RTGcore_CA] (site AGGCGGGCTCC) (LTG core: CT, RTG core: CA) | 0.201 |
| AGGCGGGGATGGGTTCTAACCTGTTGCGGAG [AGGCGGGCTCC_LTGcore_GA_RTGcore_CT] (site AGGCGGGCTCC) (LTG core: GA, RTG core: CT) | 0.555 |
| AGGCGGGTCTGGGTTCTAACCTGTTGCGGAG [AGGCGGGCTCC_LTGcore_TC_RTGcore_CT] (site AGGCGGGCTCC) (LTG core: TC, RTG core: CT) | 0.95 |
| AGGCGGGTGTGGGTTCTAACCTGTTGCGGCA [AGGCGGGCTCC_LTGcore_TG_RTGcore_TG] (site AGGCGGGCTCC) (LTG core: TG, RTG core: TG) | 0.0694 |
| AGGCGGTACTGGGTTCTAACCTGTTGCTTGT [AGGCGGTCTAA_LTGcore_AC_RTGcore_AC] (site AGGCGGTCTAA) (LTG core: AC, RTG core: AC) | 0.166 |
| AGGCGGTCATGGGTTCTAACCTGTTGCTTAG [AGGCGGTCTAA_LTGcore_CA_RTGcore_CT] (site AGGCGGTCTAA) (LTG core: CA, RTG core: CT) | 0.322 |
| AGGCGGTCGTGGGTTCTAACCTGTTGCTTCG [AGGCGGTCTAA_LTGcore_CG_RTGcore_CG] (site AGGCGGTCTAA) (LTG core: CG, RTG core: CG) | 0.228 |
| AGGCGGTCTTGGGTTCTAACCTGTTGCTTAA [AGGCGGTCTAA_LTGcore_CT_RTGcore_TT] (site AGGCGGTCTAA) (LTG core: CT, RTG core: TT) | 0.0737 |
| AGGCGGTCTTGGGTTCTAACCTGTTGCTTGA [AGGCGGTCTAA_LTGcore_CT_RTGcore_TC] (site AGGCGGTCTAA) (LTG core: CT, RTG core: TC) | 0.107 |
| AGGCGGTCTTGGGTTCTAACCTGTTGCTTGC [AGGCGGTCTAA_LTGcore_CT_RTGcore_GC] (site AGGCGGTCTAA) (LTG core: CT, RTG core: GC) | 0.784 |
| AGGCGGTCTTGGGTTCTAACCTGTTGCTTGG [AGGCGGTCTAA_LTGcore_CT_RTGcore_CC] (site AGGCGGTCTAA) (LTG core: CT, RTG core: CC) | 0.244 |
| AGGCGGTGATGGGTTCTAACCTGTTGCTTAG [AGGCGGTCTAA_LTGcore_GA_RTGcore_CT] (site AGGCGGTCTAA) (LTG core: GA, RTG core: CT) | 0.09 |
